Results published in PMC2610419 (Chemical biology & drug design, 2006).
Residue numbers refer to the chain shown, from its start. Entries after “also recorded” stand apart in the source; their conditions may differ. Square brackets hold non-standard residues; d marks the D form. Ends that are not written are not given here. pS = N[C@@H](COP(=O)(O)O)C(=O)O

How the values were obtained:
Design in all cases: species or system murine
[1] = biological target: T1, Abl SH2 domain Arg45Gln (Mus musculus, UniProt P00520, R161Q); assay: HSQC NMR titration ligand-binding assay, Arg45Gln mutant; conditions: read-out: Affinity in high salt, 135 mM KCl
T1 sequence (P00520 120-220 R161Q): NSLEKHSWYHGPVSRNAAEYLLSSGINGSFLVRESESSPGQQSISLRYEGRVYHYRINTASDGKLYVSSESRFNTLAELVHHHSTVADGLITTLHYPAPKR

[2] = biological target: T2, Abl SH2 domain Arg36Lys (Mus musculus, UniProt P00520, R152K); assay: HSQC NMR titration ligand-binding assay, Arg36Lys mutant; conditions: 135 mM KCl
T2 sequence (P00520 120-220 R152K): T1 sequence (P00520 120-220 R161Q) with R33K, Q42R

[3] = biological target: T3, Abl SH2 domain Arg59Gln (Mus musculus, UniProt P00520, R175Q); assay: HSQC NMR titration ligand-binding assay, Arg59Gln mutant; conditions: for Affinity in high salt: 135 mM KCl; for Kd: read-out: Affinity in high salt, 135 mM KCl
T3 sequence (P00520 120-220 R175Q): T1 sequence (P00520 120-220 R161Q) with Q42R, R56Q

[4] = biological target: T4, Abl SH2 domain (wild type) (Mus musculus, UniProt P00520); assay: HSQC NMR titration ligand-binding assay, wild type Abl SH2 domain; conditions: for Affinity in high salt: 135 mM KCl, HSQC titration, ± standard error
T4 sequence (P00520 120-220): T1 sequence (P00520 120-220 R161Q) with Q42R

Molecule	Kd [1] [µM]	Affinity in high salt [2]	Affinity in high salt [3]	Kd [3] [mM]	Affinity in high salt [4]	further results
CCCC(=O)OC[C@H](COP(=O)(O)O[C@@H]1[C@H](O)[C@H](O)[C@@H](OP(=O)(O)O)[C@H](OP(=O)(O)O)[C@H]1O)OC(=O)CCC [diC4-PtdIns(4,5)P2, dibutanoyl (C4) PtdIns(4,5)P2]	900 ± 60	Not detectable	almost completely disrupted	> 10	–	Affinity in high salt ([2]; listed as PtdIns(4,5)P2): abolished
CCCCCCCC(=O)OC[C@H](COP(=O)(O)O[C@@H]1[C@H](O)[C@H](O)[C@@H](OP(=O)(O)O)[C@H](OP(=O)(O)O)[C@H]1O)OC(=O)CCCCCCC [diC8-PtdIns(4,5)P2, dioctanoyl (C8) PtdIns(4,5)P2]	–	–	–	–	–	stronger affinity of the C8 over C4 form of PtdIns(4,5)P2 ([4]; ratio of affinities): 1.6 fold
phosphatidic acid [Phosphatidicacid]	–	–	–	–	very weak	–
phosphatidylserine	–	–	–	–	Not detectable	Affinity in high salt ([4]; listed as PtdSer): very weak

Further lines, with some results ahead:

Kd [1] [µM]	Affinity in high salt [2]	Affinity in high salt [3]	Kd [3] [mM]	Affinity in high salt [4]	Molecule	further results
390 ± 13	abolished; also recorded: Not detectable	reduced to millimolar levels	2.5 ± 0.2	–	N[C@@H](Cc1ccc(OP(=O)(O)O)cc1)C(=O)O [pTyr, phosphotyrosine]	–
–	–	–	–	Not detectable	GQSSRV[pS]PSPTTY [BCR pSer354 peptide]	–
